In ChEMBL document CHEMBL5537149, “Design, synthesis, and lead optimization of piperazinyl-pyrimidine analogues as potent small molecules targeting the viral capping machinery of Chikungunya virus” (Eur J Med Chem, 2024):
≈ marks a conversion by molar mass, not a printed value.

Tests used:
[1] = Cytotoxicity against African green monkey Vero cells assessed as reduction in overall metabolic activity incubated for 5 days by MTS reagent based absorbance method; assay type: toxicity, cell-based; conditions: chlorocebus sabaeus, time 5 day
[2] = Metabolic stability in human liver microsomes assessed as half-life preincubated for 5 mins followed by NADPH addition and measured upto 60 mins by HPLC-MS/MS analysis; assay type: ADME, Microsome; conditions: time < 65 min
[3] = system: Chikungunya virus; assay: Antiviral activity against Chikungunya virus infected in African green monkey Vero cells assessed as reduction in viral induced cell death incubated for 5 days by MTS reagent based absorbance method; assay type: functional, organism-based; conditions: 120 h
[4] = Aqueous solubility of compound at pH 7.4 by HPLC analysis; assay type: physicochemical
[5] = Selectivity index, ratio of CC50 for cytotoxicity against African green monkey Vero cells to EC50 for antiviral activity against Chikungunya virus infected in African green monkey Vero cells assessed as reduction in viral induced cell death; assay type: toxicity, cell-based; conditions: read-out: Ratio CC50/EC50

Structure (SMILES)	CC50 at 120 h [1]	half-life [2]	EC50 [3]	solubility [4]	selectivity ratio [5]
CCNc1cc(C)nc(N2CCN(C(=O)c3cccc([N+](=O)[O-])c3)CC2)n1	> 100 µM	57 min	4.2 µM	119 µM (≈ 44.1 µg/mL)	> 24
CCNc1nc(C)cc(N2CCN(C(=O)c3ccccc3)CC2)n1	> 308 µM	> 60 min	2.05 µM	> 120 µM	> 150
CCNc1nc(N2CCN(C(=O)c3cc(Cl)cc(Cl)c3)CC2)cc(C(F)(F)F)n1	> 50 µM	29 min	> 12.5 µM	2 µM (≈ 0.897 µg/mL)	
CNc1ccnc(N2CCN(S(=O)(=O)c3ccc(F)cc3)CC2)n1	193 µM	48 min	9.62 µM	> 120 µM	20
O=C(c1cc(Cl)cc(Cl)c1)N1CCN(c2nc(Cl)nc3[nH]cnc23)CC1		> 60 min	18 µM	66 µM (≈ 27.2 µg/mL)	
Cc1cc(N2CCN(C(=O)c3cc(Cl)cc(Cl)c3)CC2)nc(N(C)C)n1	67 µM	> 60 min	4.4 µM	109 µM (≈ 43 µg/mL)	15
CCNc1nc(C)cc(N2CCN(C(=O)c3cccc(Cl)c3)CC2)n1	248 µM	> 60 min	6.6 µM	> 120 µM	38
CCNc1cc(C)nc(N2CCN(C(=O)c3ccc(Br)cc3)CC2)n1	> 100 µM	> 60 min	9.58 µM	116 µM (≈ 46.9 µg/mL)	> 10
CCNc1cc(C)nc(N2CCN(S(=O)(=O)c3cccs3)CC2)n1	180 µM		103 µM	68 µM (≈ 25 µg/mL)	1.8
CCNc1cc(C(F)(F)F)nc(N2CCN(C(=O)c3ccc(Br)cc3)CC2)n1	> 25 µM	56 min	> 6.3 µM	1.2 µM (≈ 0.55 µg/mL)	
CCNc1nc(C)cc(N2CCN(S(=O)(=O)c3ccc(Cl)cc3)CC2)n1	11 µM	49 min	2.76 µM	104 µM (≈ 41.2 µg/mL)	3.9
CCNc1cc(C)nc(N2CC(NC(=O)c3cc(Cl)cc(Cl)c3)C2)n1			> 88 µM	47 µM (≈ 17.9 µg/mL)	
CCNc1cc(C)nc(N2CCC3(CC2)CC(=O)c2ccccc2O3)n1			23 µM	100 µM (≈ 35.2 µg/mL)	
CCNc1cc(C)nc(N2CC3CCC(C2)N3C(=O)c2cc(Cl)cc(Cl)c2)n1			> 100 µM	97 µM (≈ 40.8 µg/mL)	
Nc1nc(N2CCN(C(=O)c3cc(Cl)cc(Cl)c3)CC2)c2nc[nH]c2n1			> 100 µM	47 µM (≈ 18.4 µg/mL)	
Nc1nc(N2CCN(C(=O)c3ccc(Cl)c(Cl)c3)CC2)c2nc[nH]c2n1			> 100 µM	106 µM (≈ 41.6 µg/mL)	
O=C(c1cc(Cl)cc(Cl)c1)N1CCN(c2nc(C(F)(F)F)nc3[nH]cnc23)CC1			77 µM	73 µM (≈ 32.5 µg/mL)	
CCNc1nc(C)cc(NC2CN(C(=O)c3cc(Cl)cc(Cl)c3)C2)n1		37 min	8.5 µM	104 µM (≈ 39.5 µg/mL)	
CCNc1cc(C)nc(NC2CN(C(=O)c3cc(Cl)cc(Cl)c3)C2)n1			> 100 µM	93 µM (≈ 35.4 µg/mL)	
O=C(c1ccc(Cl)c(Cl)c1)N1CCN(c2nc(C(F)(F)F)nc3[nH]cnc23)CC1		> 60 min	9.5 µM	71 µM (≈ 31.6 µg/mL)	
CCNc1cc(C)nc(N2CCC(NC(=O)c3cc(Cl)cc(Cl)c3)CC2)n1	48 µM		> 100 µM	52 µM (≈ 21.2 µg/mL)	< 0.48

Structure (SMILES)	CC50 at 120 h [1]	half-life [2]	EC50 [3]	solubility [4]	selectivity ratio [5]
CCNc1nc(C)cc(N2CCN(C(=O)c3ccc(C)cc3C)CC2)n1	> 100 µM		> 100 µM		> 1
CCNc1nc(C)cc(N2CCC3(CCN(C(=O)c4cc(Cl)cc(Cl)c4)C3)C2)n1 (stereo not given)		> 60 min	11 µM	98 µM (≈ 42.6 µg/mL)	
CCNc1nc(C)cc(N2CC3CCC(C2)N3C(=O)c2cc(Cl)cc(Cl)c2)n1		> 60 min	14 µM	111 µM (≈ 46.7 µg/mL)	
Cc1nc(Cl)c(N)c(N2CCN(C(=O)c3cc(Cl)cc(Cl)c3)CC2)n1			32 µM	94 µM (≈ 37.7 µg/mL)	
CCNc1nc(C)cc(N2CC3CCC(C2)N3C(=O)c2ccc(Cl)cc2)n1	84 µM		17 µM		5
CCNc1nc(C)cc(N2CCC3(CCN(C(=O)c4ccc(Cl)cc4)C3)C2)n1 (stereo not given)	45 µM		18 µM		2.5
CCNc1nccc(N2CCN(C(=O)c3ccc(F)cc3)CC2)n1	> 304 µM		216 µM	> 120 µM	> 1.4
CCNc1cc(C)nc(N2CCN(C(=O)C3CCCCC3)CC2)n1	147 µM		70 µM	119 µM (≈ 39.4 µg/mL)	2.1
O=C(c1ccc(Cl)cc1)N1CCN(c2ncnc3[nH]cnc23)CC1			94 µM	114 µM (≈ 39.1 µg/mL)	
CCNc1cc(C)nc(N2CCN(S(=O)(=O)c3ccc(Cl)nc3)CC2)n1	97 µM		121 µM	115 µM (≈ 45.6 µg/mL)	0.8
Nc1nc(N2CCN(C(=O)c3ccc(Cl)cc3)CC2)c2nc[nH]c2n1			> 100 µM	116 µM (≈ 41.5 µg/mL)	
CCNc1cc(C)nc(N2CCC3(CCN(C(=O)c4ccc(Cl)cc4)C3)C2)n1 (stereo not given)	74 µM		32 µM		2.3
Cc1nc(Cl)c(N)c(N2CCN(C(=O)c3ccc(Cl)c(Cl)c3)CC2)n1		> 60 min	9.8 µM	118 µM (≈ 47.3 µg/mL)	
CCNc1nc(C)cc(N2CC3CN(C(=O)c4ccc(Cl)cc4)CC3C2)n1 (stereo not given)	72 µM		3.2 µM		23
O=C(c1cc(Cl)cc(Cl)c1)N1CCN(c2ncnc3[nH]cnc23)CC1			32 µM	112 µM (≈ 42.3 µg/mL)	
CCNc1cc(C(F)(F)F)nc(N2CCN(C(=O)c3ccc(Cl)c(Cl)c3)CC2)n1	> 25 µM	36 min	> 6.3 µM		
CCNc1nc(C)cc(N2CCC3(CC2)CC(=O)c2ccccc2O3)n1		> 60 min	4.2 µM	98 µM (≈ 34.5 µg/mL)	
CCNc1cc(C)nc(N2CCC3(CCN(C(=O)c4cc(Cl)cc(Cl)c4)C3)C2)n1 (stereo not given)			28 µM	108 µM (≈ 46.9 µg/mL)	
CCNc1cc(C)nc(N2CCCC(NC(=O)c3cc(Cl)cc(Cl)c3)C2)n1 (stereo not given)	49 µM		> 25 µM	31 µM (≈ 12.7 µg/mL)	< 1.95
Cc1nc(Cl)c(N)c(N2CCN(C(=O)c3ccc(Cl)cc3)CC2)n1	> 88 µM		> 88 µM		> 1
CCNc1nc(C)cc(N2CCN(C(=O)c3ccc(F)cc3F)CC2)n1	> 100 µM		> 100 µM		> 1

Structure (SMILES)	CC50 at 120 h [1]	half-life [2]	EC50 [3]	solubility [4]	selectivity ratio [5]
CCNc1cc(C(F)(F)F)nc(N2CCN(C(=O)c3cccc(Br)c3)CC2)n1		17 min	41 µM	0.8 µM (≈ 0.367 µg/mL)	
CC(C)Nc1ccnc(N2CCN(S(=O)(=O)c3ccc(F)cc3)CC2)n1		46 min	10 µM	100 µM (≈ 37.9 µg/mL)	
CCNc1cc(C)nc(N2CCN(C(=O)c3cc(Cl)cc(Cl)c3)CC2)n1	> 100 µM		67 µM	11 µM (≈ 4.34 µg/mL)	> 1.5
CCNc1nc(C)cc(N2CC(NC(=O)c3cc(Cl)cc(Cl)c3)C2)n1			> 100 µM	81 µM (≈ 30.8 µg/mL)	
CCNc1cc(N2CCN(S(=O)(=O)c3ccc(F)cc3)CC2)ncn1			> 274 µM	94 µM (≈ 34.4 µg/mL)	
O=C(c1ccc(Cl)cc1)N1CCN(c2nc(C(F)(F)F)nc3[nH]cnc23)CC1			26 µM	36 µM (≈ 14.8 µg/mL)	
Cc1nc(N2CCN(C(=O)c3ccc(Cl)cc3)CC2)c2nc[nH]c2n1			97 µM	84 µM (≈ 30 µg/mL)	
Cc1cc(N2CCN(S(=O)(=O)c3ccc(F)cc3)CC2)nc(N2CCCC2)n1	47 µM		25 µM	> 120 µM	1.9
Cc1nc(N2CCN(C(=O)c3cc(Cl)cc(Cl)c3)CC2)c2nc[nH]c2n1			> 100 µM	92 µM (≈ 36 µg/mL)	
O=C(c1ccc(Cl)c(Cl)c1)N1CCN(c2ncnc3[nH]cnc23)CC1			66 µM	104 µM (≈ 39.2 µg/mL)	
CCNc1cc(C)nc(N2CC3CCC(C2)N3C(=O)c2ccc(Cl)cc2)n1	> 88 µM		79 µM		> 1.11
CCNc1nc(C)cc(N2CCN(C(=O)c3ccc(Cl)cc3Cl)CC2)n1	47 µM		> 100 µM	> 120 µM	< 0.47
CCNc1cc(C(F)(F)F)nc(N2CCN(C(=O)c3cc(Cl)cc(Cl)c3)CC2)n1	> 25 µM	18 min	> 6.3 µM	3.5 µM (≈ 1.57 µg/mL)	
CCNc1cc(C)nc(N2CC3CN(C(=O)c4cc(Cl)cc(Cl)c4)CC3C2)n1 (stereo not given)			23 µM	108 µM (≈ 45.4 µg/mL)	
CCNc1nc(N2CCN(C(=O)c3ccc(Cl)c(Cl)c3)CC2)cc(C(F)(F)F)n1	> 100 µM		> 100 µM		
Cc1cc(N2CCN(C(=O)c3cccc(Br)c3)CC2)nc(N(C)C)n1	> 100 µM		100 µM		> 1
CCNc1nc(N2CCN(C(=O)c3ccc(Br)cc3)CC2)cc(C(F)(F)F)n1	> 100 µM		> 100 µM	33 µM (≈ 15.1 µg/mL)	
CCNc1nc(C)cc(N2CC3CN(C(=O)c4cc(Cl)cc(Cl)c4)CC3C2)n1 (stereo not given)		> 60 min	19 µM	109 µM (≈ 45.8 µg/mL)	
CCNc1nc(C)cc(N2CCC(NC(=O)c3cc(Cl)cc(Cl)c3)CC2)n1	> 100 µM		> 25 µM	100 µM (≈ 40.8 µg/mL)	
CCNc1cc(C)nc(N2CC3CN(C(=O)c4ccc(Cl)cc4)CC3C2)n1 (stereo not given)	> 88 µM		12 µM		> 7.5
Cc1cc(N(C)C)nc(N2CCN(C(=O)c3cc(Cl)cc(Cl)c3)CC2)n1	> 100 µM		> 100 µM	95 µM (≈ 37.5 µg/mL)	
